Assay results: PubChem BioAssay AID248 (DTP/NCI, 2004)
Several values for one entry are separate records, joined by “and”; a condition that tells them apart may be missing. Equal values may be shown once. Inconclusive results and toxic doses are left out.

System: L1210 leukemia ip in BDF1 mice, survival T/C
Experiment: NCI In Vivo Anticancer Drug Screen. Data for tumor model L1210 Leukemia (intraperitoneal) in B6D2F1 (BDF1) mice
Details: endpoint: mean survival time, higher = longer survival
Outline: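 Survival endpoint. Drug-treated group vs vehicle group, expressed as T divided by C. Tumor passaged by transplantation.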

Structure (SMILES): CNC1=C(N2CC2)C(=O)C(NC)=C(N2CC2)C1=O
- T/C (dose: 0.01 mg/kg/injection, schedule: Q01DX009 (ip), vehicle: Klucel (hydroxypropylcellulose) (HPC)): 97 % of control and 102 % of control
- T/C (dose: 0.02 mg/kg/injection, schedule: Q01DX009 (ip), vehicle: Klucel (hydroxypropylcellulose) (HPC)): 100 % of control and 101 % of control
- T/C (dose: 0.04 mg/kg/injection, schedule: Q01DX009 (ip), vehicle: Klucel (hydroxypropylcellulose) (HPC)): 109 % of control and 119 % of control
- T/C (dose: 0.05 mg/kg/injection, schedule: Q01DX009 (ip), vehicle: saline): 106 % of control
- T/C (dose: 0.09 mg/kg/injection, schedule: Q04DX003 (ip), vehicle: Klucel (hydroxypropylcellulose) (HPC)): 110 % of control
- T/C (dose: 0.1 mg/kg/injection, schedule: Q01DX009 (ip), vehicle: saline): 118 % of control
- T/C (dose: 0.1 mg/kg/injection, schedule: Q04DX003 (ip), vehicle: saline): 103 % of control
- T/C (dose: 0.19 mg/kg/injection, schedule: Q01DX009 (ip), vehicle: Klucel (hydroxypropylcellulose) (HPC)): 161 % of control
- T/C (dose: 0.2 mg/kg/injection, schedule: Q01DX009 (ip), vehicle: saline): 173 % of control
- T/C (dose: 0.2 mg/kg/injection, schedule: Q04DX003 (ip), vehicle: saline): 112 % of control
- T/C (dose: 0.37 mg/kg/injection, schedule: Q01DX001 (ip), vehicle: saline): 108 % of control
- T/C (dose: 0.39 mg/kg/injection, schedule: Q01DX009 (ip), vehicle: Klucel (hydroxypropylcellulose) (HPC)): 112 % of control and 88 % of control
- T/C (dose: 0.39 mg/kg/injection, schedule: Q04DX003 (ip), vehicle: Klucel (hydroxypropylcellulose) (HPC)): 156 % of control
- T/C (dose: 0.78 mg/kg/injection, schedule: Q04DX003 (ip), vehicle: Klucel (hydroxypropylcellulose) (HPC)): 112 % of control and 115 % of control
- T/C (dose: 0.8 mg/kg/injection, schedule: Q04DX003 (ip), vehicle: saline): 157 % of control

Structure (SMILES): COc1cccc(C2NC(=O)CCC2[N+](=O)[O-])c1OC (stereo not given)
- T/C (dose: 100.0 mg/kg/injection, schedule: Q04DX002 (ip), vehicle: saline with Tween-80): 105 % of control
- T/C (dose: 200.0 mg/kg/injection, schedule: Q04DX002 (ip), vehicle: saline with Tween-80): 102 % of control
- T/C (dose: 400.0 mg/kg/injection, schedule: Q04DX002 (ip), vehicle: saline with Tween-80): 94 % of control

Structure (SMILES): CCOC(=O)CC(C)(N)NC(N)=O (stereo not given)
- T/C (dose: 100.0 mg/kg/injection, schedule: Q01DX009 (ip), vehicle: saline with Tween-80): 98 % of control
- T/C (dose: 100.0 mg/kg/injection, schedule: Q04DX003 (ip), vehicle: saline): 104 % of control
- T/C (dose: 200.0 mg/kg/injection, schedule: Q01DX009 (ip), vehicle: saline with Tween-80): 93 % of control
- T/C (dose: 200.0 mg/kg/injection, schedule: Q04DX003 (ip), vehicle: saline): 106 % of control
- T/C (dose: 400.0 mg/kg/injection, schedule: Q01DX009 (ip), vehicle: saline with Tween-80): 90 % of control
- T/C (dose: 400.0 mg/kg/injection, schedule: Q04DX003 (ip), vehicle: saline): 106 % of control

Structure (SMILES): CCOC(=O)c1ccc(OC(=O)Nc2ccc(F)cc2)cc1
- T/C (dose: 50.0 mg/kg/injection, schedule: Q01DX001 (ip), vehicle: carboxymethylcellulose (CMC)): 106 % of control
- T/C (dose: 50.0 mg/kg/injection, schedule: Q01DX009 (ip), vehicle: carboxymethylcellulose (CMC)): 96 % of control and 105 % of control
- T/C (dose: 50.0 mg/kg/injection, schedule: Q04DX002 (ip), vehicle: carboxymethylcellulose (CMC)): 95 % of control and 103 % of control
- T/C (dose: 100.0 mg/kg/injection, schedule: Q01DX001 (ip), vehicle: carboxymethylcellulose (CMC)): 104 % of control
- T/C (dose: 100.0 mg/kg/injection, schedule: Q01DX009 (ip), vehicle: carboxymethylcellulose (CMC)): 95 % of control and 99 % of control
- T/C (dose: 100.0 mg/kg/injection, schedule: Q04DX002 (ip), vehicle: carboxymethylcellulose (CMC)): 95 % of control and 107 % of control
- T/C (dose: 200.0 mg/kg/injection, schedule: Q01DX001 (ip), vehicle: carboxymethylcellulose (CMC)): 101 % of control
- T/C (dose: 200.0 mg/kg/injection, schedule: Q01DX009 (ip), vehicle: carboxymethylcellulose (CMC)): 94 % of control
- T/C (dose: 200.0 mg/kg/injection, schedule: Q04DX002 (ip), vehicle: carboxymethylcellulose (CMC)): 103 % of control and 88 % of control

Structure (SMILES): C/C(=N/NC(N)=O)C1CC2CCC1C2 (stereo not given)
- T/C (dose: 100.0 mg/kg/injection, schedule: Q01DX001 (ip), vehicle: saline): 98 % of control
- T/C (dose: 100.0 mg/kg/injection, schedule: Q01DX009 (ip), vehicle: gum acacia): 102 % of control
- T/C (dose: 100.0 mg/kg/injection, schedule: Q04DX003 (ip), vehicle: gum acacia): 93 % of control
- T/C (dose: 200.0 mg/kg/injection, schedule: Q01DX001 (ip), vehicle: saline): 101 % of control
- T/C (dose: 200.0 mg/kg/injection, schedule: Q01DX009 (ip), vehicle: gum acacia): 94 % of control
- T/C (dose: 200.0 mg/kg/injection, schedule: Q04DX003 (ip), vehicle: gum acacia): 95 % of control
- T/C (dose: 400.0 mg/kg/injection, schedule: Q04DX003 (ip), vehicle: gum acacia): 90 % of control
